32 molecules from patent publication US9517227B2, “Dihydropyrazoles” (Merck Patent GmbH, priority 2011, dated 2016) can be followed below.

One test deals with T1, FSHR (Homo sapiens, UniProt P23945).
T1 construct: expressed in transfected cells; host or cells: CHO (Cho-FSHR-LUC-1-1-43)
T1 sequence (P23945 18-695): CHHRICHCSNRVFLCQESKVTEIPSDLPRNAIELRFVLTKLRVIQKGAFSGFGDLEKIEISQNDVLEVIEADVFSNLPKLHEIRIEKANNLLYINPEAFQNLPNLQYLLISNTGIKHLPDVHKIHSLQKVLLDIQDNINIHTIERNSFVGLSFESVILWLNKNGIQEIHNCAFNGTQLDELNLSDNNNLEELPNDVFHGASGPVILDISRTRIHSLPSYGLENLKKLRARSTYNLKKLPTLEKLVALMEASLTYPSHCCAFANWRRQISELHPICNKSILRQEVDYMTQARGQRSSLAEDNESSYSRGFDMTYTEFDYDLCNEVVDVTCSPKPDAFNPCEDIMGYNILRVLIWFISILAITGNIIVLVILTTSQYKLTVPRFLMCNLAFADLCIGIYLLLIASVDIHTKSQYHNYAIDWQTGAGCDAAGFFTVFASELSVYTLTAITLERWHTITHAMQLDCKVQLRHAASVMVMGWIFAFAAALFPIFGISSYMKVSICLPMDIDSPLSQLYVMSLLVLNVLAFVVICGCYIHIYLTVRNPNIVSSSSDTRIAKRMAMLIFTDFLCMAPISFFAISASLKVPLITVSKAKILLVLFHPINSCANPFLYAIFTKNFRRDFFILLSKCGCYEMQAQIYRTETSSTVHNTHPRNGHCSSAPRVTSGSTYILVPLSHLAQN
Put plainly: EC50 of cyclic AMP production in CHO FSHR cells + EC20 FSH (Assay A). In kind it is cell-based. As to conditions: CHO-FSHR-LUC cells, 0.265 pM FSH (EC20), cAMP HTRF, 1 h. The procedure: EC50 of Cyclic AMP Production in CHO FSHR Cells+EC20 FSH (Assay A)
2500 Cho-FSHR-LUC-1-1-43 cells were plated per well in 5 μl of phenol red free DMEM/F12+1% FBS. Cells were plated in 384 well, solid white low volume plates (Greiner 784075) by Multidrop. Cells were assayed by adding 100 μl of 2×EC20 FSH/IBMX in DMEM/F12+0.1% BSA) by Multidrop to 2 μl of test compound stamped in 384 well plates (compounds are diluted 1:50). The final FSH concentration was 0.265 pM, and the final IBMX concentration was 200 μM. The compound plate map was as follows: Column 1: 2 μl of DMSO; Column 2: 2 μl of DMSO; Columns 3-12 and 13-24: 2 μl of test compound, diluted 1:4 in 100% DMSO, or 2 μl of FSH, diluted 1:4 in DMEM/F12+0.1% BSA. The starting concentration for FSH was 50 nM (final concentration was 0.5 nM). Furthermore, Column 23 contained 2 μl of EC100 FSH reference (100×) (diluted in DMEM/F12+0.1% BSA) at a final concentration of 0.5 nM, and Column 24 contained 2 μl of 1 mM AS707664/2 reference compound 2. 5 μl of compound+EC20 FSH mixture were transferred to cell plates (1:2 dilution into 5 μl of cell media). The plates were incubated at 37° C. for 1 h. 10 μl of mixed HTRF (CisBio #62AM4PEC) reagents were added per well and incubated at room temperature for 1 h. The plates were read on Envision using the cAMP HTRF—low volume 384 well protocol. The readout was the calculated fluorescence ratio (665 nm/620 nm).
On the technique in general: Time-resolved FRET reads energy transfer from a long-lived donor to a nearby acceptor.

Test [1] concerns the target T2, follicle-stimulating hormone (FSH) receptor (Rattus norvegicus, UniProt P20395).
T2 construct: endogenous in cells; host or cells: rat granulosa cells
T2 sequence (P20395 18-692): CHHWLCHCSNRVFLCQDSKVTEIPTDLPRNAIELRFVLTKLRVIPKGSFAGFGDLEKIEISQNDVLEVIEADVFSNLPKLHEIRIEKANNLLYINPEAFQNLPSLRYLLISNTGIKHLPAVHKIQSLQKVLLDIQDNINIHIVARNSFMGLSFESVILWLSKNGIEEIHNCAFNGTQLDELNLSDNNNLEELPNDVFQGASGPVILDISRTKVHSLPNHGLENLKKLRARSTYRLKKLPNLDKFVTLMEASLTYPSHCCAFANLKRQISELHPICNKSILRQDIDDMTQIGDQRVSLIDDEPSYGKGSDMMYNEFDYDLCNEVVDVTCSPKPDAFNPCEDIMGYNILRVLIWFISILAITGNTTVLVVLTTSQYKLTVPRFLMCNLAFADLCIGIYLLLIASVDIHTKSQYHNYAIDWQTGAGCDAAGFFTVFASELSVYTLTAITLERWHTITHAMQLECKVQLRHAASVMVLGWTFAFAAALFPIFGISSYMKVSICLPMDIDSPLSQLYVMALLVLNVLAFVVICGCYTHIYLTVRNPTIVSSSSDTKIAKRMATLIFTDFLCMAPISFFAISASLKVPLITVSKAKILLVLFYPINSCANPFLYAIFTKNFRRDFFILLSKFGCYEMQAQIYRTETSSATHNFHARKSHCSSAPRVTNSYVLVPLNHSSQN
Put plainly: Rat granulosa EC50 FSH (Assay B). In kind it is cell-based. As to conditions: rat granulosa cells; for EC50: per Yanofsky et al. 2006. Here is the method:
Rat Granulosa EC50 FSH (Assay B)
The assay was performed pursuant to the teaching of Yanofsky et al. (2006) Allosteric activation of the follicle-stimulating hormone (FSH) receptor by selective, nonpeptide agonists. JBC 281(19): 13226-13233, which is incorporated by reference in the disclosure of the invention.

Usually EC50 stands for the concentration giving half of the maximal effect. For `COc1ccc(C2=NN(C(=O)c3cccc(Br)c3)CC2)cc1OC` [Compound 61], the figures for the EC50 (on FSHR; in test [1]) were 9.75 µM and 0.465 µM, respectively.

Take `O=C(c1cccc(F)c1)N1CCC(c2ccc3c(c2)OCCO3)=N1` [Compound 189]: at FSHR, the EC50 turned out to be 28 µM.

Turning to `COc1ccc(C2=NN(C(=O)Cc3cccc(F)c3)CC2)cc1OC` [Compound 241, 1-[3-(3,4-Dimethoxy-phenyl)-4,5-dihydro-pyrazol-1-yl]-2-(3-fluoro-phenyl)-ethanone], the values for the EC50 (at FSHR; in test [1]) were 31 µM and 0.342 µM, respectively.

In test [1], `COc1ccc(C2=NN(C(=O)c3ccccc3F)C(C)(C)C2)cc1OC` [Compound 228, [3-(3,4-Dimethoxy-phenyl)-5,5-dimethyl-4,5-dihydro-pyrazol-1-yl]-(2-fluoro-phenyl)-methanone] displayed an EC50 of 0.134 µM.

For the molecule `COc1ccc(C2=NN(C(=O)c3ccc(Cl)cc3)C(C)(C)C2)cc1OC` [Compound 247, (4-Chloro-phenyl)-[3-(3,4-dimethoxy-phenyl)-5,5-dimethyl-4,5-dihydro-pyrazol-1-yl]-methanone], the EC50 on FSHR was 35.2 µM.

As for `COc1ccc(C2=NN(C(=O)C(OC)c3cccc(C(F)(F)F)c3)CC2)cc1OC` (stereo not drawn) [Compound 277], the EC50 at FSHR came to 2 µM.

For the molecule `COc1ccc(C2=NN(C(=O)c3cccc(F)c3)CC2(C)C)cc1OC` [Compound 149, [3-(3,4-Dimethoxy-phenyl)-4,4-dimethyl-4,5-dihydro-pyrazol-1-yl]-(3-fluoro-phenyl)-methanone], the concentration giving a half-maximal response (EC50) at FSHR was found to be 0.382 µM.

As to `COc1ccc(C2=NN(C(=O)Cc3cccc(F)c3)C(C)(C)C2)cc1OC` [Compound 255, 1-[3-(3,4-Dimethoxy-phenyl)-5,5-dimethyl-4,5-dihydro-pyrazol-1-yl]-2-(3-fluoro-phenyl)-ethanone], the EC50 on FSHR is 35 µM.

Consider `COc1ccc(C2=NN(C(=O)c3cccc(C)c3)C(C)(C)C2)cc1OC` [Compound 232, [3-(3,4-Dimethoxy-phenyl)-5,5-dimethyl-4,5-dihydro-pyrazol-1-yl]-m-tolyl-methanone], for which the EC50 on FSHR amounted to 38.7 µM; in test [1], 0.572 µM.

With `CCc1cccc(C(=O)N2CCC(c3ccc(OC)c(OC)c3)=N2)c1` [Compound 93], the EC50 at FSHR came to 27 µM; in test [1] it was 0.726 µM.

On to `COc1ccc(C2=NN(C(=O)c3ccc4c(c3)OCO4)CC2)cc1OC` [Compound 3], for which the EC50 on FSHR was found to be 40.3 µM; in test [1], 0.656 µM.

As to `COc1ccc(C2=NN(C(=O)c3cccc(C)c3)CC2)cc1OC` [Compound 65], the half-maximal effective concentration (EC50) on FSHR was determined as 21 µM; in test [1] it was 5.09 µM.

Consider `COc1ccc(C2=NN(C(=O)c3ccc(C)c(F)c3)CC2)cc1OC` [Compound 136], for which the concentration for a half-maximal effect (EC50) at FSHR was determined as 30 µM; in test [1] it was 0.106 µM.

For `O=C(c1ccc2c(c1)OCO2)N1CCC(c2ccc(OC(F)(F)F)cc2)=N1` [Compound 199, Benzo[1,3]dioxol-5-yl-[3-(4-trifluoromethoxy-phenyl)-4,5-dihydro-pyrazol-1-yl]methanone], the EC50 on FSHR stood at 34.3 µM.

`CSc1ccc(C2=NN(C(=O)c3ccc4c(c3)OCO4)CC2)cc1` [Compound 205, Benzo[1,3]dioxol-5-yl-[3-(4-methylsulfanyl-phenyl)-4,5-dihydro-pyrazol-1-yl]-methanone]: at FSHR, the EC50 was 30 µM.

For `COc1ccc(C2=NN(C(=O)c3ccc(C(F)(F)F)c(F)c3)CC2)cc1OC` [Compound 75], the EC50 on FSHR was found to be 5.7 µM.

Turning to `Cn1ccc2cc(C3=NN(C(=O)c4cccc(F)c4)CC3)ccc21` [Compound 185], the EC50 at FSHR stood at 4.5 µM.

In the case of `COc1ccc(C2=NN(C(=O)[C@H](OC)c3ccccc3)CC2)cc1OC` [Compound 290], it took 5.4 µM to reach a half-maximal effect in test [1] (EC50).

`COc1ccc(C2=NN(C(=O)c3cccc(Oc4ccccc4)c3)C(C)(C)C2)cc1OC` [Compound 229, [3-(3,4-Dimethoxy-phenyl)-5,5-dimethyl-4,5-dihydro-pyrazol-1-yl]-(3-phenoxy-phenyl)-methanone] yielded an EC50 in test [1] of 0.032 µM.

Turning to `CSc1ccc(C2=NN(C(=O)c3cccc(F)c3)CC2)cc1` [Compound 204, (3-Fluoro-phenyl)-[3-(4-methylsulfanyl-phenyl)-4,5-dihydro-pyrazol-1-yl]methanone], on FSHR, the EC50 came to 8.25 µM.

Turning to `COc1ccc(C(OC)C(=O)N2CCC(c3ccc(OC)c(OC)c3)=N2)cc1` (stereo not drawn) [Compound 275], the EC50 at FSHR turned out to be 24 µM.

`COc1ccc(C2=NN(C(=O)c3cccc(Cl)c3)C(C)(C)C2)cc1OC` [Compound 251, (3-Chloro-phenyl)-[3-(3,4-dimethoxy-phenyl)-5,5-dimethyl-4,5-dihydro-pyrazol-1-yl]-methanone]: the EC50 on FSHR is 27.1 µM.

In the case of `COc1ccc(C2=NN(C(=O)C(OC)c3ccccc3)CC2)cc1OC` (stereo not drawn) [Compound 291], the “Assay B: value given in % (rat granulosa)” value in test [1] (meaning of % not stated) was 144.00%.

`O=C(c1cccc(F)c1)N1CCC(c2ccc(C(F)(F)F)cc2)=N1` [Compound 207]: the EC50 on FSHR is 44.5 µM.

In the case of `COc1ccc(C2=NN(C(=O)C(OC)c3ccc(C)cc3)CC2)cc1OC` (stereo not drawn) [Compound 282], the EC50 at FSHR was 27 µM.

On to `COc1ccc(C2=NN(C(=O)c3cccc(F)c3)CC2)c(OC)c1OC` [Compound 223], for which the EC50 at FSHR worked out at 31.2 µM.

For `Cc1cccc(C2=NN(C(=O)c3cccc(F)c3)CC2)c1` [Compound 179, (3-Fluoro-phenyl)-(3-m-tolyl-4,5-dihydro-pyrazol-1-yl)-methanone], on FSHR, the EC50 worked out at 34 µM.

Take `COc1ccc(C2=NN(C(=O)c3ccc(Br)cc3)C(C)(C)C2)cc1OC` [Compound 257, (4-Bromo-phenyl)-[3-(3,4-dimethoxy-phenyl)-5,5-dimethyl-4,5-dihydro-pyrazol-1-yl]-methanone]: at FSHR, the EC50 was determined as 33.2 µM.

Regarding `COc1ccc(C2=NN(C(=O)C(OC)c3ccc(Cl)cc3)CC2)cc1OC` (stereo not drawn) [Compound 274], the EC50 at FSHR was found to be 25 µM.

For `CC(C)(C)Oc1ccc(C2=NN(C(=O)c3cccc(F)c3)CC2)cc1` [Compound 210], the EC50 on FSHR was found to be 7.39 µM.

Consider `COc1ccc(C2=NN(C(=O)c3cccc(F)c3)CC2)cc1S(=O)(=O)NCc1ccccc1` [Compound 214], for which the EC50 on FSHR stood at 1.1 µM.

For the molecule `CCc1ccc(C(=O)N2N=C(c3ccc(OC)c(OC)c3)CC2(C)C)cc1` [Compound 259, [3-(3,4-Dimethoxy-phenyl)-5,5-dimethyl-4,5-dihydro-pyrazol-1-yl]-(4-ethyl-phenyl)-methanone], at FSHR, the EC50 worked out at 30 µM.
